Test results published in patent US4371466A, “Mammalian collagenase inhibitors” (American Home Products Corporation, priority 1981, dated 1983).
Non-standard residues stand in square brackets, D forms with d. Residues, ends and D or L forms follow the SMILES beside them. pGlu = O=C1CC[C@@H](C(=O)O)N1

System: collagenase
Experiment: Collagenase inhibition, acetyl 14C collagen hydrolysis (procedure of Sellers et al.)
Assay type: biochemical
Settings: 2 mM inhibitor, 35° C., 5 to 18 hours, Tris-CaCl2 pH 7.4, versus control devoid of inhibitor
Protocol: The collagen is acetyl ^14 C collagen. The samples are centrifuged and an aliquot removed for assay on a scintillation counter. Because native collagen forms insoluble fibrils under the test conditions, the supernatant liquid contains radioactivity as a measure of hydrolysis. The collagenase activity in the presence of 2 mM inhibitor is compared to activity in a control devoid of inhibitor and the results reported as percent inhibition of collagenase activity. Each of the compounds of this invention have been established as active collagenase inhibitors by the test procedure.
The following examples illustrate the preparation of typical representative compounds of the invention. After each preparative example, the percent inhibition of collagenase activity at the 2 mM level of inhibition in accordance with the previously described standart testing procedure is provided.

Molecule | Percent inhibition collagenase
CC[C@H](C)[C@H](NC(=O)[C@@H](N)CS)C(N)=O [Example 1, H-L-Cys-L-Ile-NH2] (H-Cys-Ile-NH2) | 35%
Ac-PQGIAG-NH2 [Example 3, CH3 CO-Pro-Gln-Gly-Ile-Ala-Gly-NH2] | 35%
CC[C@H](C)[C@H](NC(=O)[C@H](CS)NC(=O)[C@@H]1CCC(=O)N1)C(N)=O [Example 2, L-pGlu-L-Cys-L-Ile-NH2] ([pGlu]-Cys-Ile-NH2) | 75%
